Molecular target: T1, MKNK2 (MNK2) (Homo sapiens, UniProt Q9HBH9)
T1 construct: purchased Thermo Fisher Scientific (Life Technologies) SelectScreen
Experiment: SelectScreen LanthaScreen
Type: binding
Details: read-out: % displacement
Procedure, shortened: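 Percent values come from Thermo SelectScreen profiling of NU5455, combining activity and binding assays. CSF1R was run in Z'LYTE format at Km app ATP, and CAMK1 in Adapta format with ATP listed at 10.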

T1 sequence (Q9HBH9 whole entry): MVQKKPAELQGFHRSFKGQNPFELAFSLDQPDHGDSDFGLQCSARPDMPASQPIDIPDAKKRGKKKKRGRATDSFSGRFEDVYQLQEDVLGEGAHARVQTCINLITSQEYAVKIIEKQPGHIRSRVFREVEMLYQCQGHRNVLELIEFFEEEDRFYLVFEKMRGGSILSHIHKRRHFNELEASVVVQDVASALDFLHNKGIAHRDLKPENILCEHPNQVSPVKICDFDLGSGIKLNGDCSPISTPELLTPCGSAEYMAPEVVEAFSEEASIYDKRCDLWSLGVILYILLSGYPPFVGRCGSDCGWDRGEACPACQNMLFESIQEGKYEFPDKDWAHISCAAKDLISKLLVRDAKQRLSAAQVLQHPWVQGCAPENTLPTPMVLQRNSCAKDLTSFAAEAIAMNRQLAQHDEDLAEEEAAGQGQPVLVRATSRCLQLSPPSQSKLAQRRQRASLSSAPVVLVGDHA

CN(C(=O)CN1CCOCC1)c1ccc2sc3c(-c4cccc5c(=O)cc(N6CC7CCC(C6)O7)oc45)cccc3c2c1 [NU5455]
inhibition at 1 µM: 0.2%

— PMC6934184, “Selective DNA-PKcs inhibition extends the therapeutic index of localized radiotherapy and chemotherapy” (The Journal of Clinical Investigation, 2019)
